# From PubChem BioAssay AID1259321 (Sanford-Burnham Center for Chemical Genomics, 2017)
# pIC50: −log10 of the molar value. Active and inactive are the calls of the source.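 The calls were made as follows: active = half-maximal concentration for changing protein binding to DNA, from the fitted dose curve, below 10 micromolar; inactive = the rest.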
# Target: Nuclear receptor subfamily 1 group D member 1 (Homo sapiens) (UniProt P20393)
# Assay: modulators of Rev-erb alpha DNA binding, dose response, biochemical, FITC-DNA, fluorescence polarization (AID 1259321)
# Sequence of Nuclear receptor subfamily 1 group D member 1 (Homo sapiens) (P20393 whole entry, looked up): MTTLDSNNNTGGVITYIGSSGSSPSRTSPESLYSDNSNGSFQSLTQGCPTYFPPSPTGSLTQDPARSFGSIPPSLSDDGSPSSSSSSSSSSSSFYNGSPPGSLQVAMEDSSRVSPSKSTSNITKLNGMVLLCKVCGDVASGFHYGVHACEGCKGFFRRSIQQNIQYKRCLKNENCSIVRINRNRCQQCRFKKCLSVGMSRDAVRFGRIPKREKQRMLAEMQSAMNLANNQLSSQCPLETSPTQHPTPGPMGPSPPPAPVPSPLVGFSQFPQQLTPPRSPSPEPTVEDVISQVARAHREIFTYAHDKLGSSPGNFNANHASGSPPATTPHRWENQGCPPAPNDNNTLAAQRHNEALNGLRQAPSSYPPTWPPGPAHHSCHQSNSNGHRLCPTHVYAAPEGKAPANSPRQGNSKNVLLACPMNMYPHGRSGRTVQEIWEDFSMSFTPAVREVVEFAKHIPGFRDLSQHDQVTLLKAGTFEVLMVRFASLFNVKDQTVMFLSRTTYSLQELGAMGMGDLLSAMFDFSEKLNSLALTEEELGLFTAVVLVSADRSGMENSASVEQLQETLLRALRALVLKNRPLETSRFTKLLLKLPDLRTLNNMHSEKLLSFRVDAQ
Compound,pIC50,IC50
COc1ccccc1NC(=O)c1oc2ccccc2c1NC(=O)c1cc(OC)c(OC)c(OC)c1,5.32,–
Cc1nc(N2CCN(c3ccccn3)CC2)c2c(C)c(C(=O)N3CCN(c4cccc(Cl)c4)CC3)sc2n1,–,> 40 µM (inactive)
CC(=O)c1ccc(N2CCN(c3ccc4cc(S(=O)(=O)N5CCC(C)CC5)ccc4n3)CC2)cc1,5.06,–
CCN(c1ccccc1C)S(=O)(=O)c1cc2c3c(c1)CCC(=O)N3CCC2,–,> 40 µM (inactive)
CN1C(=O)c2cc(NS(=O)(=O)c3ccc(F)cc3)ccc2OC[C@H]2O[C@@H](CC(=O)NCC(F)(F)F)CC[C@@H]21,5.79,–
CCOC(=O)c1c(NC(=O)COC(=O)CCOc2ccccc2C)sc(C(=O)NC)c1C,6.08,–
COC(=O)c1ccc(NC(=O)c2cn(-c3ccccc3)nc2-c2ccncc2)cc1,–,> 40 µM (inactive)
COC(=O)c1cc(-c2cc3ccccc3s2)c(=O)n2c1CCC2,5.13,–
CCOC(=O)c1ccc(CNC(=O)CSc2nc(NC(=O)c3ccccc3)c3c(C)c(C)oc3n2)cc1,–,inactive
CN1CCS/C1=C/C=C1\SC(=S)N(CC(=O)O)C1=O,5.95,–
Cc1nc(SCC(=O)Nc2ccc(F)cc2)c2oc3ccccc3c2n1,–,inactive
O=S(=O)(c1ccc2nc(N3CCN(c4ccccc4F)CC3)ccc2c1)N1CCCCC1,6.08,–
COc1ccc(-c2cc(-c3cccnc3)c(C#N)c(N)n2)cc1,5.36,–
CCC(=O)c1ccc(OCC(=O)Nc2ccccc2C(=O)NC2CC2)cc1,5.33,–
Cc1nc2cc(NC(=O)CSc3nc4c(C)cccc4cc3C#N)ccc2s1,5.23,–
Cc1cc(C)cc(N2CC(O)=C(c3nc4ccccc4c(=O)[nH]3)C2=N)c1,5.52,–
COc1ccc2c(/C=C/c3cc[n+](C)cc3)c[nH]c2c1,–,inactive
O=C(NCc1cccc(F)c1)c1cccc2c1C(=O)c1ccc(N3CCOCC3)cc1S2(=O)=O,5.43,–
COc1ccccc1-c1ccc2c(c1)C(C)(Cc1cccc(C#N)c1)C(=O)N2 (stereo not drawn),–,> 40 µM (inactive)
COc1ccc(-n2c(SCC(=O)NC3CCCCC3)nc3ccsc3c2=O)cc1,5.29,–
CCC(=O)c1cn(CC(=O)Nc2ccc(C)cc2C)c2ccccc12,5.87,–
Cc1cc(=O)oc2cc(OCC3CC(c4ccc(Br)cc4)=NO3)ccc12 (stereo not drawn),5.98,–
CSc1nnc(N2C(=O)C(O)=C(C(=O)c3ccco3)C2c2cccc(Cl)c2)s1 (stereo not drawn),–,inactive
COc1ccc2[nH]c(C(=O)Nc3ccc(C)c(F)c3)cc2c1,6.19,–
CCN1/C(=C/c2ccc3cccc(C)c3[n+]2CC)Sc2ccccc21,5.69,–
NS(=O)(=O)c1ccc(CCNc2nc3c(-c4cccc(F)c4)nnn3c3ccccc23)cc1,–,> 40 µM (inactive)

Compound,pIC50,IC50
O=[N+]([O-])c1ccc(N(c2ccccc2)c2ccccc2)cc1,5.34,–
COc1ccc2nc(SCc3cccnc3)c(C#N)cc2c1,5.60,–
COC(=O)c1ccc(Cn2ccc3ccc(-c4ccc5ccn(C(=O)C6CCCCC6)c5c4)cc32)cc1,5.20,–
O=C(OCCN1C(=O)c2cccc3c(N4CCOCC4)ccc(c23)C1=O)c1ccc(Cl)cc1,5.29,–
O=[N+]([O-])c1ccc(N2CCCCCC2)c2nonc12,–,> 40 µM (inactive)
Cc1cc(C)c(NC(=O)CSc2nc3ncc(Br)cc3[nH]2)c(C)c1,–,> 40 µM (inactive)
CCOC(=O)Nc1ccc2c(COC(=O)CNS(=O)(=O)c3ccc(NC(C)=O)cc3)cc(=O)oc2c1,6.26,–
COc1cccc(C(=O)n2ccc3ccc(-c4ccc5ccn(Cc6ccccc6)c5c4)cc32)c1,5.88,–
COc1ccc(-c2c(C)nc3c(-c4ccsc4)cnn3c2N)cc1,5.03,–
CCOc1ccccc1NC(=O)c1nnn(CC(=O)Nc2cc(C)cc(C)c2)c1N,–,> 40 µM (inactive)
COc1ccc(CCNC(=O)CSc2nc(-c3ccc(OC)c(OC)c3)ccc2C#N)cc1,–,inactive
Cc1ccc(-n2c(O)c(/C=N/c3ncc(Br)cc3Br)c(=O)[nH]c2=O)cc1,–,inactive
Cc1nc(SCC(=O)NCc2ccccc2)c2oc3ccccc3c2n1,5.38,–
Cc1cccc2cc(C#N)c(SCC(=O)N3CC(=O)Nc4ccccc43)nc12,–,inactive
CC(=O)Oc1ccc2oc(/C=C/N(C)C)c([N+](=O)[O-])c2c1,5.41,–
COc1ccc(-n2nc(C(=O)NCC(=O)NCc3ccc(F)cc3)c3ccccc3c2=O)cc1OC,–,inactive
O=S(=O)(Cc1cc(NCc2ccccc2)nc(-c2ccncc2)n1)c1ccccc1,–,> 40 µM (inactive)
Brc1ccc(Sc2cnc3ccccc3n2)cc1,–,inactive
O=C(c1ccccc1)N1N=C(c2ccccc2O)CC1c1ccccc1 (stereo not drawn),5.63,–
CCN(CC)C(=O)CSc1nc(N)c(C#N)c(-c2cccs2)c1C#N,5.08,–
Cc1cccc2cc(C(c3nnnn3Cc3ccccc3)N3CCN(c4ccccc4)CC3)c(=O)[nH]c12 (stereo not drawn),5.10,–
O=C(NCCc1ccccc1)c1ccc2c(c1)S(=O)(=O)c1cc(Cl)ccc1C2=O,5.74,–
Cc1n[nH]c(C)c1N1C(=O)c2cccc3c(N4CCCCCC4)ccc(c23)C1=O,5.44,–
COc1ccc(C(C)(C)C)cc1NC(=O)C1=CC=CN2CCS(=O)(=O)N=C12,5.27,–
Cc1nc(-c2ccccc2)nc2[nH]c(-c3ccccc3)cc(=O)c12,–,inactive
Fc1cccc2sc(Nc3nc4cc5c(cc4s3)OCCO5)nc12,–,inactive

Compound,pIC50,IC50
CCc1nnc(NC(=O)c2oc3ccc(Br)cc3c2C)s1,5.21,–
CC(C)Cc1nc2sc3c(SCC(N)=O)ncnc3c2c2c1CCC2,5.44,–
COc1ccc(C(=O)Nc2nnc(Cc3cccs3)s2)cc1OC,–,inactive
CCCCCNC(=O)c1c[nH]c2ccc(S(=O)(=O)N3CCC4(CC3)OCCO4)cc2c1=O,–,inactive
O=C(CCc1c[nH]c2ccccc12)NCCc1ccc2c(c1)OCCO2,5.97,–
Cc1ccc(-n2c(SCC(=O)Nc3cccc(S(=O)(=O)NC4=NCCCCC4)c3)nc3ccccc3c2=O)cc1,–,inactive
COc1ccc2cc(C(=O)Nc3ccc(S(N)(=O)=O)cc3)sc(=O)c2c1OC,5.52,–
Cc1ccc(Sc2cnc3ccccc3n2)cc1,–,inactive
CC(=O)NC(=S)Nc1ccc2oc(-c3cc(F)c(F)cc3Cl)nc2c1,5.48,–
Cc1nn(-c2ccc(Cl)c(Cl)c2)c(=O)c2ccccc12,5.29,–
Cc1cc2nc3c(=O)n(CCc4ccccc4)c(=O)[nH]c3nc2cc1N,–,> 40 µM (inactive)
COc1ccccc1N=Nc1nc(-c2ccccc2)c(-c2ccccc2)[nH]1,6.33,–
COc1ccccc1N/C(N)=N/c1nc(CSc2ccc(C)cc2)cc(=O)[nH]1,5.38,–
CCOC(=O)c1c(-c2ccccc2)csc1NC(=O)c1cc(S(=O)(=O)N2CCOCC2)ccc1C,5.35,–
Cc1ccc(-c2nnc(NCc3nc4ccccc4[nH]3)c3ccccc23)cc1S(=O)(=O)N(C)C,–,inactive
CCc1cc2cc3c(cc2nc1SCC(=O)Nc1cc(C)on1)OCO3,5.48,–
Cc1ccc(OCC(=O)Nc2ccc(O)c(-c3nc4ccccc4o3)c2)cc1,–,> 40 µM (inactive)
Cc1ccc(-c2nn(C)c(=O)c3ccccc23)cc1S(=O)(=O)N1CCCC1,–,> 40 µM (inactive)
O=C(COC(=O)c1sc2cc(F)ccc2c1Cl)Nc1ncc(Cl)cc1Cl,–,> 40 µM (inactive)
N#Cc1c(N)nc(N2CCCC2)c(C#N)c1-c1ccc(Cl)cc1,5.30,–
Cc1ccc2[nH]c(=O)c(CN(C(=O)c3cccs3)c3ccccc3)cc2c1,5.42,–
Cc1cccc2cc(C#N)c(SCC(=O)N3CCC(C)CC3)nc12,5.90,–
O=C(Nc1nc(-c2ccccc2)c(C(=O)c2ccccc2)s1)c1ccc(S(=O)(=O)N2CCCCC2)cc1,6.27,–
O=C(Nc1ccc2c(c1)C(=O)NC2=O)c1ccc2ncsc2c1,5.64,–
C=CCOc1ccc(C2C(C(=O)c3cccs3)=C(O)C(=O)N2c2nnc(C)s2)cc1 (stereo not drawn),5.40,–
COc1cccc(OC)c1-c1nn2c(-c3cc(-c4ccccc4)n[nH]3)nnc2s1,–,inactive

Compound,pIC50,IC50
COc1cc(-c2ccc3c(=O)c4ccccc4sc3c2)cc(OC)c1OC,5.54,–
COc1cc2c3nnc(-c4ccc(F)cc4)c-3cn(Cc3ccccc3F)c2cc1OC,5.70,–
Cc1cc(-c2csc3nc[nH]c(=S)c23)cc(C)c1C,5.27,–
CC[n+]1c(/C=C/c2c[nH]c3ccccc23)ccc2cc(C)ccc21,–,inactive
Cc1ccc(-c2c(C#N)c(N)n(-c3ccc(Cl)cc3)c(=O)c2C#N)cc1,–,inactive
O=c1ccc(-c2ccc(S(=O)(=O)N3CCN(c4cccc(Cl)c4)CC3)o2)n[nH]1,5.72,–
Cc1c(-c2ccc(Cl)cc2)oc(=O)c2c(N)n(-c3ccccc3)nc12,5.40,–
Cc1nc(N2CCC(C)CC2)c2c(C)c(C(=O)Nc3ccc(C)c(F)c3)sc2n1,–,> 40 µM (inactive)
CN(C)c1ccc(N=Nc2ccccc2C(=O)OCC(=O)N2CCCC2)cc1,6.28,–
COC(=O)c1sc2nc(-c3ccccc3)c3c(c2c1N)CCCC3,–,inactive
COC(=O)c1ccc(Cn2ccc3ccc(-c4ccc5ccn(C(=O)c6ccccc6OC)c5c4)cc32)cc1,5.28,–
CCC(=O)c1cn(CC(=O)Nc2ccccc2Cl)c2ccccc12,5.40,–
COC(=O)c1ccc(NC(=O)c2ccc3c(c2)C(=O)N(C)C3=O)cc1,5.35,–
CN1C(=O)C(=Cc2ccc(N3CCOCC3)o2)C(=O)N(C)C1=S,5.39,–
COc1cc2c(cc1OC)CN(C(=O)CSc1nc(N)c(C#N)cc1C#N)CC2,–,inactive
Cc1cnc(NC(=O)c2cc3c(C)nn(-c4ccccc4)c3s2)s1,5.42,–
Clc1nc2c(-c3ccccc3)nnn2c2ccccc12,–,> 40 µM (inactive)
O=[N+]([O-])c1ccc(O)c(-c2cc(C(F)(F)F)nc(-c3ccccc3)n2)c1,–,> 40 µM (inactive)
COc1cccc(C(=O)Nc2ccc(-c3nc4ccccc4o3)c(O)c2)c1,–,> 40 µM (inactive)
CCOC(=O)c1sc(NC(=S)NC(=O)C2CCCC2)cc1C,5.74,–
Cc1c(Cl)ccc2c(C(N)=O)cc(-c3ccccn3)nc12,5.22,–
COc1ccc(C)cc1NC(=O)c1cc2c(=O)n3ccccc3nc2n1C,5.41,–
O=C(Nc1nnc(SCc2ccccc2)s1)c1cc2c(s1)CCCC2,5.63,–
CCOC(Cn1c(SCc2cc(C(C)=O)ccc2OC)nc2ccccc2c1=O)OCC,5.03,–
O=C1c2cccc3c(O)ccc(c23)C(=O)N1Cc1ccco1,–,inactive
